Data from patent US20240150277A1, “Covalent PPARG inverse-agonists” (Bayer Aktiengesellschaft, priority 2022, published 2024).
Like-named read-outs stand apart in the source and are kept apart here.

Columns and labels:
[1] = target: T1, PPARG receptors (Homo sapiens, UniProt P37231); assay: RT-112-FABP4-NLuc Reporter Gene Assay (inverse agonism); type: cell-based; details: incubated over night; for IC50: bladder cancer cell line RT-112/84, NanoLuc in FABP4 3′ UTR, 50 μM to 0.03 nM; for Emax: RT112/84, read-out: PPARG_RT-112_FABP4_NLuc_inverse agonist Efficacy - [%], bladder cancer cell line RT-112/84, NanoLuc in FABP4 3′ UTR
T1 construct: leading to PPARG dependent expression of the NanoLuc@ Luciferase; endogenous in cells
T1 sequence (P37231 1-505): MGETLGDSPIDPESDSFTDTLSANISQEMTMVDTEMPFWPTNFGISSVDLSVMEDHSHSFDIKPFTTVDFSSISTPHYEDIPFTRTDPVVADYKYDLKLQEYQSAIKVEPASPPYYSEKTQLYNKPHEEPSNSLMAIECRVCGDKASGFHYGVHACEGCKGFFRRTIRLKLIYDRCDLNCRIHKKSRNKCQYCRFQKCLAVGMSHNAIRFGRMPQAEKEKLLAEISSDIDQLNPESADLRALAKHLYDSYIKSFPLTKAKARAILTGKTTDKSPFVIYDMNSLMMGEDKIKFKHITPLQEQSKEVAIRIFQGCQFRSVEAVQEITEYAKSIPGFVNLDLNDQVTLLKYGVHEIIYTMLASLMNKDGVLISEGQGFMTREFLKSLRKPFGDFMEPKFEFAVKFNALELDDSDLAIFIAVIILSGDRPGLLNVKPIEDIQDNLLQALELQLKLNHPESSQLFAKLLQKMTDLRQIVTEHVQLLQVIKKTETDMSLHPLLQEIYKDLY

[2] = system: UMUC9 cells; assay: Proliferation UMUC9 H2B-GFP assay (Incucyte); type: cell-based; details: 7 days of treatment; for Emax: UM-UC-9, 168 h, % efficacy (span); for IC50: UM-UC-9, relative IC50, Day 1 subtracted, percentage of DMSO control
[3] = PPARG_RT-112_FABP4_NLuc_inverse agonist IC50 - [mol/l]

SMILES	IC50 [1, 3]	Emax [1]	IC50 ([1]; read-out: PPARG_RT-112_FABP4_NLuc_inverse agonist IC50 - [mol/l])	Emax [2]	IC50 [2]
O=C(NCc1ccc(F)c(F)c1)c1cc(Cl)c(Cl)c(C(=O)Nc2cnccn2)c1 [Example 42, 4,5-dichloro-N^1-(3,4-difluorobenzyl)-N^3-(pyrazin-2-yl)isophthalamide]	4.7 nM	102%		68.6%	1.94 nM
Cc1ccccc1CNC(=O)c1ccc(Cl)c(C(=O)Nc2ccccc2)c1 [Example 47, 4-chloro-N^1-[(2-methylphenyl)methyl]-N^3-phenylbenzene-1,3-dicarboxamide]	895 nM	92%		66.9%	2240 nM
Cc1ccccc1NC(=O)c1cc(C(=O)NCc2ccccc2)cc(Cl)c1Br [Example 50, N^1-benzyl-4-bromo-5-chloro-N^3-(2-methylphenyl)benzene-1,3-dicarboxamide]	0.45 nM	108%		50.8%	5.06 nM

Continued, in another order:

IC50 [1, 3]	Emax [1]	IC50 ([1]; read-out: PPARG_RT-112_FABP4_NLuc_inverse agonist IC50 - [mol/l])	SMILES	Emax [2]	IC50 [2]
	51.5%	7400 nM	O=C(NCc1ccc(F)c(F)c1)c1ccc(Cl)c(C(=O)Nc2ccccc2)c1 [Example 44, 4-chloro-N^1-[(3,4-difluorophenyl)methyl]-N^3-phenylbenzene-1,3-dicarboxamide]	103%	
0.99 nM	72.5%		O=C(NCc1ccccc1)c1cc(Cl)c(Br)c(C(=O)Nc2ccccc2)c1 [Example 49, N^1-benzyl-4-bromo-5-chloro-N^3-phenylbenzene-1,3-dicarboxamide]	34.5%	3170 nM
1.5 nM	96%		Cc1c(F)c(C(=O)NCc2ccc(F)c(F)c2)cc(C(=O)Nc2ccc(OCC(C)(C)O)cn2)c1Cl [Example 52, 4-chloro-N^1-[(3,4-difluorophenyl)methyl]-6-fluoro-N^3-[5-(2-hydroxy-2-methylpropoxy)pyridin-2-yl]-5-methylbenzene-1,3-dicarboxamide]	28.6%	746 nM
